From patent US20250230193A1, “CYCLIC COMPOUND HAVING SELECTIVE KRAS INHIBITORY EFFECT ON HRAS AND NRAS” (CHUGAI SEIYAKU KABUSHIKI KAISHA, priority 2022, published 2025)

How the values were obtained:
[1] = biological target: GDP-bound NRAS wild-type protein (Homo sapiens, UniProt P01111); assay: Binding to NRAS by surface plasmon resonance (SPR), Single Cycle Kinetics; conditions: KD ratio NRAS/KRAS, SPR
[2] = biological target: GDP-bound HRAS wild-type protein (Homo sapiens, UniProt P01112); assay: Binding to HRAS by surface plasmon resonance (SPR), Single Cycle Kinetics; conditions: KD ratio HRAS/KRAS, SPR
Chain of GDP-bound HRAS wild-type protein (P01112 whole entry): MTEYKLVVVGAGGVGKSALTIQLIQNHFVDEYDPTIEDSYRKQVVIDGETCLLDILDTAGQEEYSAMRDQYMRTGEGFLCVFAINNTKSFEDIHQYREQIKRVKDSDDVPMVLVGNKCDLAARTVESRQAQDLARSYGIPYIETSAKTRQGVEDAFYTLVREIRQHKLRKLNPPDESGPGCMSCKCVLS

Chain of GDP-bound NRAS wild-type protein (P01111 whole entry): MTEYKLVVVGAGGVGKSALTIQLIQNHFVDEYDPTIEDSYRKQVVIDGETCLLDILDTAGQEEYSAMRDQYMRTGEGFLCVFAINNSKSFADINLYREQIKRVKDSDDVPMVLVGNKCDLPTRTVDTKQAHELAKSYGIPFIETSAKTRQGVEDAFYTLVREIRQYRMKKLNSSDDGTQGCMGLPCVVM

| Structure (SMILES) | NRAS/KRAS (ratio of KD value with respect to GDP-bound NRAS wild-type protein to KD value with respect to KRAS) [1] | HRAS/KRAS (ratio of KD value with respect to GDP-bound HRAS wild-type protein to KD value with respect to KRAS) [2] |
| --- | --- | --- |
| CC[C@H](C)[C@@H]1NC(=O)[C@H](CC(C)C)N(C)C(=O)C[C@@H](C(=O)N2CCOCC2)N(C)C(=O)[C@H](C2CCCC2)N(C)C(=O)C2(COC2)NC(=O)[C@@H]2CCCN2C(=O)[C@H](CCc2cc(F)c(C(F)(F)F)c(F)c2)NC(=O)CN(C)C(=O)[C@H](Cc2ccc(C(F)(F)F)cc2)N2CCCCC[C@@H](C2=O)N(C)C(=O)CN(C)C1=O [PP0501] | B (a compound having 3 or more and less than 10 is denoted as B) | B (a compound having 3 or more and less than 10 is denoted as B) |
| CC[C@H](C)[C@@H]1NC(=O)[C@H](CC(C)C)N(C)C(=O)C[C@@H](C(=O)N2CCOCC2)N(C)C(=O)[C@H](C2CCCC2)N(C)C(=O)C2(CCOCC2)NC(=O)[C@@H]2CCCN2C(=O)[C@H](CCc2cc(F)c(C(F)(F)F)c(F)c2)NC(=O)CN(C)C(=O)[C@H](Cc2ccc(C(F)(F)F)cc2)N2CCCCC[C@@H](C2=O)N(C)C(=O)CN(C)C1=O [PP0502] | A (a compound having 10 or more and less than 20 is denoted as A) | B (a compound having 3 or more and less than 10 is denoted as B) |
| CC[C@H](C)[C@@H]1NC(=O)[C@H](CC(C)C)N(C)C(=O)C[C@@H](C(=O)N2CCOCC2)N(C)C(=O)[C@H](C2CCCC2)N(C)C(=O)C(C)(C)NC(=O)[C@@H]2CCCN2C(=O)[C@H](CCc2cc(F)c(C(F)(F)F)c(F)c2)NC(=O)CN(C)C(=O)[C@H](Cc2ccc(C(F)(F)F)cc2)N2CCCCC[C@@H](C2=O)N(C)C(=O)CN(C)C1=O [PP0503] | A (a compound having 10 or more and less than 20 is denoted as A) | B (a compound having 3 or more and less than 10 is denoted as B) |
| CC[C@H](C)[C@@H]1NC(=O)[C@H](CC(C)C)N(C)C(=O)C[C@@H](C(=O)N2CCOCC2)N(C)C(=O)[C@H](C2CCC2)N(C)C(=O)C2(CCCC2)NC(=O)[C@@H]2CCCN2C(=O)[C@H](CCc2cc(F)c(C(F)(F)F)c(F)c2)NC(=O)CN(C)C(=O)[C@H](Cc2ccc(C(F)(F)F)cc2)N2CCCCC[C@@H](C2=O)N(C)C(=O)CN(C)C1=O [PP0504] | B (a compound having 3 or more and less than 10 is denoted as B) | B (a compound having 3 or more and less than 10 is denoted as B) |
| CC[C@H](C)[C@@H]1NC(=O)[C@H](CC(C)C)N(C)C(=O)C[C@@H](C(=O)N2CCOCC2)N(C)C(=O)[C@H](C2CCCCC2)N(C)C(=O)C2(CCCC2)NC(=O)[C@@H]2CCCN2C(=O)[C@H](CCc2cc(F)c(C(F)(F)F)c(F)c2)NC(=O)CN(C)C(=O)[C@H](Cc2ccc(C(F)(F)F)cc2)N2CCCCC[C@@H](C2=O)N(C)C(=O)CN(C)C1=O [PP0505] | B (a compound having 3 or more and less than 10 is denoted as B) | B (a compound having 3 or more and less than 10 is denoted as B) |
| CC[C@H](C)[C@@H]1NC(=O)[C@H](CC(C)C)N(C)C(=O)C[C@@H](C(=O)N2CCOCC2)N(C)C(=O)[C@H](CC(F)(F)F)N(C)C(=O)C2(CCCC2)NC(=O)[C@@H]2CCCN2C(=O)[C@H](CCc2cc(F)c(C(F)(F)F)c(F)c2)NC(=O)CN(C)C(=O)[C@H](Cc2ccc(C(F)(F)F)cc2)N2CCCCC[C@@H](C2=O)N(C)C(=O)CN(C)C1=O [PP0506] | B (a compound having 3 or more and less than 10 is denoted as B) | B (a compound having 3 or more and less than 10 is denoted as B) |
| CC[C@H](C)[C@@H]1NC(=O)[C@H](CC(C)C)N(C)C(=O)C[C@@H](C(=O)N(C)C)N(C)C(=O)[C@H](C2CCCC2)N(C)C(=O)C2(CCCC2)NC(=O)[C@@H]2CCCN2C(=O)[C@H](CCc2cc(F)c(C(F)(F)F)c(F)c2)NC(=O)CN(C)C(=O)[C@H](Cc2ccc(C(F)(F)F)cc2)N2CCCCC[C@@H](C2=O)N(C)C(=O)CN(C)C1=O [PP0507] | B (a compound having 3 or more and less than 10 is denoted as B) | B (a compound having 3 or more and less than 10 is denoted as B) |
| CC[C@H](C)[C@@H]1NC(=O)[C@H](CC(C)C)N(C)C(=O)C[C@@H](C(=O)N2CCCC2)N(C)C(=O)[C@H](C2CCCC2)N(C)C(=O)C2(CCCC2)NC(=O)[C@@H]2CCCN2C(=O)[C@H](CCc2cc(F)c(C(F)(F)F)c(F)c2)NC(=O)CN(C)C(=O)[C@H](Cc2ccc(C(F)(F)F)cc2)N2CCCCC[C@@H](C2=O)N(C)C(=O)CN(C)C1=O [PP0509] | B (a compound having 3 or more and less than 10 is denoted as B) | B (a compound having 3 or more and less than 10 is denoted as B) |
| CC[C@H](C)[C@@H]1NC(=O)[C@H](CC(C)C)N(C)C(=O)C[C@@H](C(=O)N2CCCCC2)N(C)C(=O)[C@H](C2CCCC2)N(C)C(=O)C2(CCCC2)NC(=O)[C@@H]2CCCN2C(=O)[C@H](CCc2cc(F)c(C(F)(F)F)c(F)c2)NC(=O)CN(C)C(=O)[C@H](Cc2ccc(C(F)(F)F)cc2)N2CCCCC[C@@H](C2=O)N(C)C(=O)CN(C)C1=O [PP0510] | B (a compound having 3 or more and less than 10 is denoted as B) | B (a compound having 3 or more and less than 10 is denoted as B) |
| CC[C@H](C)[C@@H]1NC(=O)[C@H](CC(C)C)N(C)C(=O)C[C@@H](C(=O)N2C3CCC2COC3)N(C)C(=O)[C@H](C2CCCC2)N(C)C(=O)C2(CCCC2)NC(=O)[C@@H]2CCCN2C(=O)[C@H](CCc2cc(F)c(C(F)(F)F)c(F)c2)NC(=O)CN(C)C(=O)[C@H](Cc2ccc(C(F)(F)F)cc2)N2CCCCC[C@@H](C2=O)N(C)C(=O)CN(C)C1=O [PP0511] | A (a compound having 10 or more and less than 20 is denoted as A) | B (a compound having 3 or more and less than 10 is denoted as B) |
| CC[C@H](C)[C@@H]1NC(=O)[C@H](CC(C)C)N(C)C(=O)C[C@@H](C(=O)N(C)C)N(C)C(=O)[C@H](C2CCCC2)N(C)C(=O)C2(CCC2)NC(=O)[C@@H]2CCCN2C(=O)[C@H](CCc2cc(F)c(C(F)(F)F)c(F)c2)NC(=O)CN(C)C(=O)[C@H](Cc2ccc(C(F)(F)F)cc2)N2CCCCC[C@@H](C2=O)N(C)C(=O)CN(C)C1=O [PP0512] | B (a compound having 3 or more and less than 10 is denoted as B) | B (a compound having 3 or more and less than 10 is denoted as B) |
| CC[C@H](C)[C@@H]1NC(=O)[C@H](CC(C)C)N(CC)C(=O)C[C@@H](C(=O)N2CCOCC2)N(C)C(=O)[C@H](C2CCCC2)N(C)C(=O)C2(CCCC2)NC(=O)[C@@H]2CCCN2C(=O)[C@H](CCc2cc(F)c(C(F)(F)F)c(F)c2)NC(=O)CN(C)C(=O)[C@H](Cc2ccc(C(F)(F)F)cc2)N2CCCCC[C@@H](C2=O)N(C)C(=O)CN(C)C1=O [PP0513] | B (a compound having 3 or more and less than 10 is denoted as B) | B (a compound having 3 or more and less than 10 is denoted as B) |
| CC[C@H](C)[C@@H]1NC(=O)[C@H](CC(C)C)N(C)C(=O)C[C@@H](C(=O)N(C)C)N(C)C(=O)[C@H](C2CCCC2)N(C)C(=O)C2(CCCC2)NC(=O)[C@@H]2CCCN2C(=O)[C@H](CCc2cc(F)c(C(F)(F)F)c(F)c2)NC(=O)CN(C)C(=O)[C@H](Cc2ccc(C(F)(F)F)cc2)N2CCCCC[C@@H](C2=O)N(C)C(=O)CN(CC)C1=O [PP0514] | B (a compound having 3 or more and less than 10 is denoted as B) | B (a compound having 3 or more and less than 10 is denoted as B) |
| CC[C@H](C)[C@@H]1NC(=O)[C@H](CC(C)C)N(C)C(=O)C[C@@H](C(=O)N2CCOCC2)N(C)C(=O)[C@H](C2CCCC2)N(C)C(=O)C2(CCCC2)NC(=O)[C@H](C)N(CC)C(=O)[C@H](CCc2cc(F)c(C(F)(F)F)c(F)c2)NC(=O)CN(C)C(=O)[C@H](Cc2ccc(C(F)(F)F)cc2)N2CCCCC[C@@H](C2=O)N(C)C(=O)CN(C)C1=O [PP0515] | B (a compound having 3 or more and less than 10 is denoted as B) | B (a compound having 3 or more and less than 10 is denoted as B) |
| CC[C@H](C)[C@@H]1NC(=O)[C@H](CC(C)C)NC(=O)C[C@@H](C(=O)N2CCOCC2)N(C)C(=O)[C@H](C2CCCC2)N(C)C(=O)C2(CCCC2)NC(=O)[C@@H]2CCCN2C(=O)[C@H](CCc2cc(F)c(C(F)(F)F)c(F)c2)NC(=O)CN(C)C(=O)[C@H](Cc2ccc(C(F)(F)F)cc2)N2CCCCC[C@@H](C2=O)N(C)C(=O)CN(C)C1=O [PP0516] | B (a compound having 3 or more and less than 10 is denoted as B) | B (a compound having 3 or more and less than 10 is denoted as B) |
| CC[C@H](C)[C@@H]1NC(=O)[C@H](CC(F)(F)F)N(C)C(=O)C[C@@H](C(=O)N2CCOCC2)N(C)C(=O)[C@H](C2CCCC2)N(C)C(=O)C2(CCCC2)NC(=O)[C@@H]2CCCN2C(=O)[C@H](CCc2cc(F)c(C(F)(F)F)c(F)c2)NC(=O)CN(C)C(=O)[C@H](Cc2ccc(C(F)(F)F)cc2)N2CCCCC[C@@H](C2=O)N(C)C(=O)CN(C)C1=O [PP0520] | B (a compound having 3 or more and less than 10 is denoted as B) | B (a compound having 3 or more and less than 10 is denoted as B) |
